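Each compound was tested at five concentrations against cells in 96-well plates for 48 hours. GI50: concentration for 50% inhibition of growth.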 The source made the active and inactive calls. Rule as the data show it: active = GI50 up to about 1.1 µM and inactive = higher.
Columns and labels:
Assay in all cases: NCI-60 cell line screen, 48 h
RXF 393 = system: RXF 393
UACC-257 = system: UACC-257
SK-MEL-5 = system: SK-MEL-5
OVCAR-3 = system: OVCAR-3
K562 = system: K562
DLD-1 = system: DLD-1
SNB-75 = system: SNB-75
LOX IMVI = system: LOX IMVI
NCI-H522 = system: NCI-H522
IGROV-1 = system: IGROV-1
A498 = system: A498
NCI-H460 = system: NCI-H460
NCI-H23 = system: NCI-H23
TK-10 = system: TK-10
SNB-78 = system: SNB-78
SNB-19 = system: SNB-19
SK-MEL-28 = system: SK-MEL-28
SN12C = system: SN12C
SW-620 = system: SW-620
MOLT-4 = system: MOLT-4

Measured: GI50

O=C(CC1Sc2ccccc2NC1=O)Nc1ccccc1[N+](=O)[O-] (centres undefined)
inactive: RXF 393 > 100 µM | UACC-257 > 100 µM | SK-MEL-5 > 100 µM | OVCAR-3 > 100 µM | K562 > 100 µM | DLD-1 > 100 µM | SNB-75 > 100 µM | LOX IMVI > 100 µM | NCI-H522 17.1 µM | IGROV-1 > 100 µM | A498 > 100 µM | NCI-H460 > 100 µM | NCI-H23 > 100 µM | TK-10 > 100 µM | SNB-78 > 100 µM | SNB-19 > 100 µM | SK-MEL-28 > 100 µM | SN12C > 100 µM | SW-620 > 100 µM | MOLT-4 4.33 µM

CSCC[C@@H](NC(=O)[C@H](CC(C)C)NC(=O)C(Cc1cnc[nH]1)NC(=O)CNC(=O)[C@@H](NC(=O)[C@H](C)NC(=O)[C@H](Cc1cn(C=O)c2ccccc12)NC(=O)[C@H](CCC(N)=O)NC(=O)[C@@H](N)CC(N)=O)C(C)C)C(N)=O (some centres undefined)
inactive: RXF 393 > 100 µM | UACC-257 > 100 µM | SK-MEL-5 > 100 µM | OVCAR-3 > 100 µM | K562 > 100 µM | DLD-1 > 100 µM | SNB-75 > 100 µM | LOX IMVI 53.8 µM | NCI-H522 > 100 µM | IGROV-1 > 100 µM | A498 > 100 µM | NCI-H460 > 100 µM | NCI-H23 > 100 µM | SNB-78 > 100 µM | SNB-19 > 100 µM | SK-MEL-28 > 100 µM | SN12C > 100 µM | SW-620 > 100 µM | MOLT-4 > 100 µM

c1ccc([P+](Cc2csnn2)(c2ccccc2)c2ccccc2)cc1
inactive: RXF 393 84.1 µM | UACC-257 > 100 µM | SK-MEL-5 > 100 µM | OVCAR-3 > 100 µM | DLD-1 > 100 µM | SNB-75 > 100 µM | LOX IMVI > 100 µM | NCI-H522 > 100 µM | IGROV-1 > 100 µM | A498 > 100 µM | NCI-H460 > 100 µM | NCI-H23 > 100 µM | TK-10 > 100 µM | SNB-78 > 100 µM | SNB-19 > 100 µM | SK-MEL-28 > 100 µM | SN12C > 100 µM | SW-620 > 100 µM | MOLT-4 > 100 µM

NCCCCCC(CCN)SCC1OC(n2cnc3c(N)ncnc32)C(O)C1O (centres undefined)
inactive: RXF 393 1060 µM | UACC-257 > 1260 µM | SK-MEL-5 > 1110 µM | OVCAR-3 > 1500 µM | K562 436 µM | DLD-1 > 1500 µM | SNB-75 > 1500 µM | LOX IMVI > 1060 µM | NCI-H522 822 µM | IGROV-1 1180 µM | A498 > 1500 µM | NCI-H460 379 µM | NCI-H23 764 µM | SNB-78 > 1020 µM | SNB-19 615 µM | SK-MEL-28 578 µM | SN12C > 574 µM | SW-620 > 1500 µM | MOLT-4 551 µM

Cc1ccc(N2Cc3c(ccc4ccccc34)OP2(=S)N2CCCC2)cc1 (centres undefined)
inactive: RXF 393 > 100 µM | UACC-257 > 100 µM | SK-MEL-5 > 100 µM | OVCAR-3 > 40.1 µM | K562 > 89.9 µM | DLD-1 > 100 µM | SNB-75 > 100 µM | LOX IMVI > 100 µM | NCI-H522 > 100 µM | IGROV-1 > 100 µM | A498 > 56.5 µM | NCI-H460 > 100 µM | NCI-H23 > 100 µM | SNB-78 > 100 µM | SNB-19 > 100 µM | SK-MEL-28 > 100 µM | SN12C > 100 µM | SW-620 > 100 µM | MOLT-4 > 44.5 µM

O=C(OCCO)C1CC2CC1C1(C2)OCCO1 (centres undefined)
inactive: RXF 393 > 100 µM | UACC-257 > 100 µM | SK-MEL-5 > 100 µM | OVCAR-3 > 100 µM | K562 > 100 µM | DLD-1 > 100 µM | SNB-75 > 100 µM | LOX IMVI > 100 µM | NCI-H522 > 100 µM | IGROV-1 > 100 µM | A498 > 100 µM | NCI-H460 > 100 µM | NCI-H23 > 100 µM | TK-10 > 100 µM | SNB-78 > 100 µM | SNB-19 > 100 µM | SK-MEL-28 > 100 µM | SN12C > 100 µM | SW-620 > 100 µM | MOLT-4 > 100 µM

O=NN(CC1(O)OCC(O)C(O)C1O)C(Cc1c[nH]c2ccccc12)C(=O)O (centres undefined)
inactive: RXF 393 > 100 µM | UACC-257 > 100 µM | SK-MEL-5 > 100 µM | OVCAR-3 > 100 µM | K562 > 100 µM | DLD-1 > 100 µM | SNB-75 > 100 µM | LOX IMVI > 100 µM | NCI-H522 > 100 µM | IGROV-1 > 100 µM | A498 > 100 µM | NCI-H460 > 100 µM | NCI-H23 > 100 µM | TK-10 > 100 µM | SNB-78 > 100 µM | SK-MEL-28 > 100 µM | SW-620 > 100 µM | MOLT-4 > 100 µM

Reference: ChEMBL document CHEMBL1201862, “PubChem BioAssay data set” (2004)
